{
  "source": "patent US10668000B2",
  "about": "“Peptides, compositions comprising them and uses in particular cosmetic uses” (SEDERMA, priority 2014, dated 2020)",
  "key": {"[1]": {"system": "collagen", "details": "cited from earlier work"}, "[2]": {"system": "Collagen I", "experiment": "ELISA assay of collagen I synthesis in normal human fibroblasts", "format": "cell-based", "details": "NHF, 72 h", "method": "(§1) Normal human fibroblasts (NHF) in culture are contacted with the products to be tested or their excipient (negative control) for 72 h. After the contact, the culture supernatants are removed and the synthesis of dermal macromolecules are estimated by ELISA assays. An estimation of cell viability is performed by Hoechst assay and used to weight the obtained data."}, "[3]": {"system": "Collagen IV", "experiment": "ELISA assay of collagen IV synthesis in normal human fibroblasts", "format": "cell-based", "details": "NHF, 72 h", "method": "as §1"}, "[4]": {"system": "Fibronectin", "experiment": "ELISA assay of fibronectin synthesis in normal human fibroblasts", "format": "cell-based", "details": "NHF, 72 h", "method": "as §1"}, "[5]": {"system": "Laminin", "experiment": "ELISA assay of laminin synthesis in normal human fibroblasts", "format": "cell-based", "details": "NHF, 72 h", "method": "as §1"}, "[6]": {"system": "Elastin", "experiment": "ELISA assay of elastin synthesis in normal human fibroblasts", "format": "cell-based", "details": "NHF, 72 h", "method": "as §1"}, "[7]": {"system": "Collagen I", "experiment": "Immunofluorescence dosage of collagen I in normal human fibroblasts", "format": "cell-based", "details": "NHF, 6 days", "method": "(§2) Normal human fibroblasts (NHF) are cultured for 24 h. The cells are contacted or not with the products to be tested or their excipient at various concentrations for 6 days for the collagen I or 14 days for elastin (DMEMc 5% FCS). The synthesis of collagen I and elastin produced by the cells in the form of extracellular matrix is then quantified by immuno-marking on the fixed layers. A counting of the nuclei labeled with Hoechst is performed in parallel in order to have an estimate of the viability and in order to weight the data."}, "[8]": {"system": "Elastin", "experiment": "Immunofluorescence dosage of elastin in normal human fibroblasts", "format": "cell-based", "details": "NHF, 14 days", "method": "as §2"}, "[9]": {"system": "neutral lipids", "experiment": "Marking of neutral lipids with red oil in keratinocytes", "format": "cell-based, human", "details": "for Neutral lipids % variation: red oil marking, human keratinocytes", "excerpt": "(§3) Human keratinocytes are brought to just confluence in KSFMc medium. The contact with the actives and therefore their evaluation is then done in KSFMc medium alone or with calcium (0.8 mm)*. Visual evaluation of differentiation takes place after several days of contact (2, 4, 8 days/3, 5 and 7 for example). * Calcium differentiation allows the creation of link structure between the cells which leads to a better attachment of the basal layers.\nOn the same cultures as presented before, a marking of neutral lipids with red oil is realised on the fixed layers. Quantification by image analysis is used to estimate lipid synthesis in keratinocytes. A counter-colouration of the nucleus using Hoechst dye is used to weight the obtained data."}, "[10]": {"system": "filaggrin 1", "experiment": "Filaggrin 1 immunolabeling in keratinocytes", "format": "cell-based, human", "details": "for Filagrin 1 % variation: immunolabeling, human keratinocytes", "excerpt": "as §3\n(§4) On the same cultures as those presented before, immunolabeling of filaggrin 1 and ceramides are realised on layers fixed with specific antibodies. Quantification by image analysis is used to estimate the synthesis of these targets in keratinocytes. A counter-colouration of the nucleus using Hoechst dye is used to weight the obtained data."}, "[11]": {"system": "Ceramide 2", "experiment": "Ceramide 2 immunolabeling in keratinocytes", "format": "cell-based, human", "details": "for Ceramide 2 % variation: immunolabeling, human keratinocytes", "excerpt": "as §3, §4"}, "[12]": {"details": "at the level of the differentiation networks"}},
  "note": "Where two headings read alike, the source gives them in different places. Where a SMILES comes first, the peptide text is derived from it. The star is where a group is joined. Myristoyl = CCCCCCCCCCCCCC(=O)*",
  "data": [
    {"molecule": "Asn-Ile-Pro-Pro-Leu (NIPPL) [pentapeptide of WO 2010/071132 derived from fermented milk]", "values": [
      {"measurement": "collagen production by fibroblastes with regard to the control", "setting": "[1]; concentration of about 55 ppm", "value": "about +30%"}
    ]},
    {"molecule": "CCCCCCCCCCCCCC(=O)N1CCC[C@H]1C(=O)N1CCC[C@H]1C(=O)N[C@@H](CC(C)C)C(=O)O", "note": "[Myr-PPL-OH, myristoyl-prolyl-prolyl-leucine] (Myristoyl-Pro-Pro-Leu-OH)", "values": [
      {"measurement": "Collagen I % change/control", "setting": "[2]; 1 ppm", "value": "+34%"},
      {"measurement": "Collagen I % change/control", "setting": "[2]; 3 ppm", "value": "+59%"},
      {"measurement": "Collagen I % change/control", "setting": "[2]; 5 ppm", "value": "+87%"},
      {"measurement": "Collagen IV % change/control", "setting": "[3]; 1 ppm", "value": "+38%"},
      {"measurement": "Collagen IV % change/control", "setting": "[3]; 3 ppm", "value": "+51%"},
      {"measurement": "Collagen IV % change/control", "setting": "[3]; 5 ppm", "value": "+83%"},
      {"measurement": "Collagen IV % change/control", "setting": "[3]; 7 ppm", "value": "+159%"},
      {"measurement": "Fibronectin % change/control", "setting": "[4]; 3 ppm", "value": "+73%"},
      {"measurement": "Fibronectin % change/control", "setting": "[4]; 5 ppm", "value": "+41%"},
      {"measurement": "Fibronectin % change/control", "setting": "[4]; 7 ppm", "value": "+66%"},
      {"measurement": "Laminin % change/control", "setting": "[5]; 1 ppm", "value": "+29%"},
      {"measurement": "Laminin % change/control", "setting": "[5]; 3 ppm", "value": "+83%"},
      {"measurement": "Laminin % change/control", "setting": "[5]; 5 ppm", "value": "+53%"},
      {"measurement": "Laminin % change/control", "setting": "[5]; 7 ppm", "value": "+41%"},
      {"measurement": "Elastin % change/control", "setting": "[6]; 5 ppm", "value": "+86%"},
      {"measurement": "Elastin % change/control", "setting": "[6]; 7 ppm", "value": "+137%"},
      {"measurement": "Collagen I % change/control", "setting": "[7]; 3 ppm", "value": "+68%"},
      {"measurement": "Collagen I % change/control", "setting": "[7]; 7 ppm", "value": "+95%"},
      {"measurement": "Elastin % change/control", "setting": "[8]; 2 ppm", "value": "+183%"},
      {"measurement": "Elastin % change/control", "setting": "[8]; 3 ppm", "value": "+259%"},
      {"measurement": "Elastin % change/control", "setting": "[8]; 7 ppm", "value": "+145%"},
      {"measurement": "Neutral lipids % variation", "setting": "[9]; 4 ppm", "value": "+394 (p < 0.01) %"},
      {"measurement": "Neutral lipids % variation", "setting": "[9]; 6 ppm", "value": "+570 (p < 0.01) %"},
      {"measurement": "neutral lipids in the human keratinocytes", "setting": "[9]; [12]", "value": "increases"},
      {"measurement": "Filagrin 1 % variation", "setting": "[10]; 2 ppm", "value": "+564 (p < 0.01) %"},
      {"measurement": "Filagrin 1 % variation", "setting": "[10]; 4 ppm", "value": "+840 (p < 0.01) %"},
      {"measurement": "Filagrin 1 % variation", "setting": "[10]; 6 ppm", "value": "+172 (p < 0.01) %"},
      {"measurement": "filaggrin 1 in the human keratinocytes", "setting": "[10]; [12]", "value": "increases"},
      {"measurement": "Ceramide 2 % variation", "setting": "[11]; 2 ppm", "value": "+137 (nsd) %"},
      {"measurement": "Ceramide 2 % variation", "setting": "[11]; 4 ppm", "value": "+240 (p < 0.01) %"},
      {"measurement": "Ceramide 2 % variation", "setting": "[11]; 6 ppm", "value": "+268 (p < 0.01) %"},
      {"measurement": "ceramides in the human keratinocytes", "setting": "[11]; [12]", "value": "increases"}
    ]},
    {"molecule": "Ile-Pro-Pro-Leu (IPPL) [tetrapeptide of WO 2010/071132 derived from fermented milk]", "values": [
      {"measurement": "collagen production by fibroblastes with regard to the control", "setting": "[1]; concentration of about 44 ppm", "value": "about +10%"}
    ]}
  ]
}
